Legend:
hNIS mRNA in KAK-1 cells = test: qRT-PCR assay of hNIS mRNA levels after treatments in KAK-1 cells; type: cell-based, human; details: for Stimulation of hNIS mRNA transcription (in words): qRT-PCR; for Relative hNIS mRNA level: relative to control = 1 (4 copies/10^9 18s RNA), azaC 0.5 μM, NaB 1 mM, CHX 10 μg/ml, 3-AB 7.5 mM, PJ34 30 μmole/liter
Protocol: The basal media and supplements were all from GIBCO/Invitrogen Corporation, Grand Island, N.Y. All thyroid cell lines were grown in phenol red-free RPMI 1640 (GIBCO) with 10% FBS, 100 nmol/L sodium selenite, and 0.1 nmol/L bovine TSH (Sigma) at 37° C. in 5% CO2. KAK-1 cells were also cultured in high-glucose, phenol red-free RPMI 1640 supplemented with 10% FBS, 100 nM sodium selenite, 5 pIU/ml human TSH, 0.1 mM non-essential amino acids, 1 mM sodium pyruvate at 37° C. in 5% CO2. Cell culture media was replenished every 2 days. All chemical reagents were obtained from Sigma Chemical Company (St. Louis, Mo.). In addition, PJ34 was obtained from CalBiochem/EMD Biosciences, Inc. (La Jolla, Calif.) and used at 30 μmole/liter. Cycloheximide (CHX), 3-aminobenzamide (3-AB), 5-azacytidine (azaC), and sodium butyrate (NaB) were from Sigma-Aldrich Chemical Company (St. Louis, Mo.) and used at 10 μg/ml, 7.5 mM, 0.5 μM, 1 mM respectively.
Total RNA was isolated using TRIzol reagent (Invitrogen Corp., Carlsbad, Calif.), genomic DNA contamination removed using DNA-free kit (Ambion Inc., Austin, Tex.), and cDNA synthesized from 2 μg total RNA using Advantage RT-for-PCR kit (BD Biosciences Clontech, Palo Alto, Calif.) with random hexamer primers. TaqMan Universal PCR Master Mix (Applied Biosystems, Foster City, Calif.) and Assay-on-Demand Gene Expression Products (Hs00166567_m1 for hNIS mRNA and Hs999999-1_s1 for 18sRNA, respectively; Applied Biosystems) were used for RNA quantitation. The hNIS fragment (1446-1865, +1 is translation initiation codon “A”) was PCR amplified using NIS-F (5′-ctgcgtggctctctcagtc-3′ SEQ ID NO:6) and NIS-R (5′-ccctccagctccttctgc-3′ SEQ ID NO:7), followed by ligation into pCR2.1 vector (Invitrogen). The same procedure was followed using 18s-F (5′-atggtgaccacgggtgacg-3′ SEQ ID NO:8) and 18s-R (5′-[…]-3′ SEQ ID NO:9) for 18s qPCR standard. DNA preparations of these two plasmids were quantitated, diluted and used as quantitation standards in qPCR measurements.
The qRT-PCR assay was used to measure hNIS mRNA levels after different treatments in KAK-1 cells.

[1] = system: human NIS promoter region (Luc-1/pGL3-basic) in KAK-1 cells; test: Transient transfection luciferase reporter assay, Luc-1/pGL3-basic (hNIS promoter -1667 to -348 bp) in KAK-1 cells, protein synthesis inhibitors; type: cell-based; details: 2 days, Anisomycin at 0.4, 1 μg/ml, Emetine at 1, 2 μg/ml, Puromycin up to highest concentration used (1 μg/ml)
Protocol: The pGL3-basic plasmid, together with phRG-B plasmid (as transfection efficiency control) and pUC-18 (as carrier) were transiently transfected into KAK-1 cells cultured under basal conditions supplemented with 0.01% DMSO (as solvent control), Anisomycin (0.1, 0.4, 1 μg/ml), Emetine (0.5, 1, 2 μg/ml) and Puromycin (0.1, 0.4, 1 μg/ml) respectively for 2 days. The cells were then lysed and firefly luciferase activity and Renilla luciferase activity were quantitated using a luminometer (FIG. 3).
Luc-1/pGL3-basic reporter construct (Luc-1) was prepared containing the promoter region of the human sodium/iodide symporter gene (see Venkataraman et al. 1998 Thyroid 8:63-69 and U.S. Pat. No. 6,015,376; Genebank Accession Number: AF059566) from −1667 to −348 bp (FIG. 2) inserted into pGL3-basic luciferase vector at KpnI and HindIII site upstream of the luciferase coding sequence. The Luc-1/pGL3-basic construct, together with phRG-B plasmid (as transfection efficiency control) and pUC-18 (as carrier) were transiently transfected into KAK-1 cells cultured under basal conditions supplemented with 0.01% DMSO (as solvent control), Anisomycin (0.1, 0.4, 1 μg/ml), Emetine (0.5, 1, 2 μg/ml) and Puromycin (0.1, 0.4, 1 μg/ml) respectively for 2 days. The cells were then lysed and firefly luciferase activity and Renilla luciferase activity were quantitated using luminometer (FIG. 4).

[2] = system: hNIS promoter in KAK-1 cells; test: Luciferase reporter assay with pGL3-basic, F4-pGL3-basic and F4Δ-pGL3-basic constructs in KAK-1 cells, PJ34 treatment; type: cell-based, human; details: PJ34 at 30 μM for 2 days, pGL3-basic, F4-pGL3-basic, F4Δ-pGL3-basic, p<0.05, t-test
Protocol: For the transient transfection assays to monitor the effects of PJ34, PJ34 was administered at 30 μM one hour before DNA transfection mixtures were added to the KAK-1 cultures. Twenty-four hours later, transfection mixtures were replaced with fresh media containing PJ34. Luciferase and Rennilar activities were determined 24 hr later. Luciferase activity was normalized to Rennilar activity to account for the variations in transfection efficiency. Triplicate transfections were performed and data were presented as mean±SD.
PJ34 is a potent inhibitor for PARP-1. Its effect on hNIS transcription was determined using luciferase reporter assay with pGL3-basic, F4-pGL3-basic (containing hNIS promoter from −1252 to −348 bp) and F4Δ-pGL3-basic constructs (the same as F4-pGL3-basic but with deletion of sequence from −667 to −588 bp, encompassing R—NRBS).

[3] = system: factors in KAK-1 nuclear extract binding to NRBS (Probe A); test: EMSA with radiolabeled Probe A and nuclear extract from treated KAK-1 cells; type: cell-based, human; details: nuclear extract from KAK-1 cells treated with azaC 0.5 μM, sodium butyrate 1 mM, CHX 10 μg/ml or combinations
Protocol: Electrophoretic mobility shift assay was performed using radio-labeled NRBS (−684 to −565) oligonucleotides as a probe and nuclear extracts from KAK-1 cells cultured under basal conditions (not expressing hNIS mRNA), as well as with azaC/NaB and azaC/CHX treatments (shown in FIG. 8 on far left).

[4] = system: factor(s) in KAK-1 nuclear extract binding to Probe A (NIS-repressor); test: EMSA competition of cold double-stranded oligonucleotides against radiolabeled Probe A with KAK-1 nuclear extract; design: species or system human; details: excess (60×) cold competitor
Protocol: Nuclear extracts were prepared using the NucBuster Protein Extraction kit from Novagen/EMD Biosciences, Inc. (La Jolla, Calif.) following its instructions. The radioactive EMSA probes were end-labeled using T4 polynucleotide kinase in the presence of γ-P^32-ATP (GE Healthcare Bio-Sciences Corp., Piscataway, N.J.), followed by removal of the free radioactive ATP with the QIAquick Nucleotide Removal Kit from Qiagen (Valencia, Calif.). EMSA reaction was performed using the EMSA Accessory Kit (Novagen) following its instructions. Briefly, 1 μL 10 mM DTT, 5 μL 4×EMSA buffer, 1 μL Salmon sperm DNA and 1 μL poly dI:dC were mixed with 3 μL nuclear extracts, 1 μL radioactive EMSA probe and water to make up to 18 μL. In some reactions, antibodies or cold competitive probes were added. The mixtures were incubated on ice for 30 min, Then 2 μL loading dye were added to each reaction tubes, and the samples were loaded onto 7.5% PAGE/0.5×TBE, and run overnight. The gel was dried, exposed to X-ray films that were developed 2-3 days later. The competitive EMSA probes were prepared by annealing the sense and anti-sense single strand synthetic oligos respectively, which are listed in Table 2.

## NC(=O)c1cccc(N)c1 [3-AB, 3-aminobenzamide]
hNIS mRNA in KAK-1 cells
  Stimulation of hNIS mRNA transcription (in words): not effective in stimulating hNIS mRNA transcription
  Relative hNIS mRNA level: 1

## COc1ccc(C[C@H]2NC[C@H](O)[C@H]2OC(C)=O)cc1 [Anisomycin]
[1]
  Normalized luciferase activity driven by human NIS promoter region (Luc-1/pGL3-basic), compared with pGL3-basic vector: dramatically stimulated the normalized luciferase activity

## C[C@@H]1C[C@@H]([C@H](O)CC2CC(=O)NC(=O)C2)C(=O)[C@@H](C)C1 [CHX, Cycloheximide]
hNIS mRNA in KAK-1 cells
  Relative hNIS mRNA level: 4

## CC[C@H]1CN2CCc3cc(OC)c(OC)cc3[C@@H]2C[C@@H]1C[C@H]1NCCc2cc(OC)c(OC)cc21 [Emetine]
[1]
  Normalized luciferase activity driven by human NIS promoter region (Luc-1/pGL3-basic), compared with pGL3-basic vector: dramatically stimulated the normalized luciferase activity

## CN(C)CC(=O)Nc1ccc2[nH]c(=O)c3ccccc3c2c1 [PJ34]
[2]
  Normalized luciferase activity with versus without PJ34 treatment: stimulated luciferase activity from all the constructs
hNIS mRNA in KAK-1 cells
  Stimulation of hNIS mRNA transcription (in words): stimulate hNIS mRNA more than CHX alone
  Relative hNIS mRNA level: 26

## COc1ccc(C[C@H](N)C(=O)N[C@H]2[C@@H](O)[C@H](n3cnc4c(N(C)C)ncnc43)O[C@@H]2CO)cc1 [Puromycin]
[1]
  Normalized luciferase activity driven by human NIS promoter region (Luc-1/pGL3-basic), compared with pGL3-basic vector: did not stimulate the luciferase activity much

## Nc1ncn([C@@H]2O[C@H](CO)[C@@H](O)[C@H]2O)c(=O)n1 [azaC, 5-azacytidine]
[3]
  Effect of cell treatment on EMSA gel shift pattern (Probe A): gel shift pattern remained the same
hNIS mRNA in KAK-1 cells
  Relative hNIS mRNA level: 5

## Comp-1.1: double-stranded competitive EMSA probe, −653 to −630 of hNIS promoter, Seq ID No:77/78 (chain 1 GCCCTTTTTGAGCCTCAATTTCCC; chain 2 GGGAAATTGAGGCTCAAAAAGGGC; chemistry not given here)
[4]
  Competition against radiolabeled Probe A in EMSA (gel-shift signal): fail to compete against the radiolabeled Probe A

## Comp-1.2: double-stranded competitive EMSA probe, −648 to −625 of hNIS promoter, Seq ID No:79/80 (chain 1 TTTTGAGCCTCAATTTCCCCACCT; chain 2 AGGTGGGGAAATTGAGGCTCAAAA; chemistry not given here)
[4]
  Competition against radiolabeled Probe A in EMSA (gel-shift signal): effectively competed against the radiolabeled Probe A

## Comp-1.3: double-stranded competitive EMSA probe, −643 to −620 of hNIS promoter, Seq ID No:81/82 (chain 1 AGCCTCAATTTCCCCACCTGTCAA; chain 2 TTGACAGGTGGGGAAATTGAGGCT; chemistry not given here)
[4]
  Competition against radiolabeled Probe A in EMSA (gel-shift signal): effectively competed against the radiolabeled Probe A

## Comp-1.4: double-stranded competitive EMSA probe, −638 to −615 of hNIS promoter, Seq ID No:83/84 (chain 1 CAATTTCCCCACCTGTCAACAGCA; chain 2 TGCTGTTGACAGGTGGGGGAAATTG; chemistry not given here)
[4]
  Competition against radiolabeled Probe A in EMSA (gel-shift signal): fail to compete against the radiolabeled Probe A

B1: Comp-0.9: double-stranded competitive EMSA probe, −660 to −627 of hNIS promoter, Seq ID No:73/74 (nucleic acid)
chain 1: GTGACATGCCCTTTTTGAGCCTCAATTTCCCCAC
chain 2: GTGGGGAAATTGAGGCTCAAAAAGGGCATGTCAC
modifications: chemistry not given here
[4]
  Competition against radiolabeled Probe A in EMSA (gel-shift signal): fail to compete against the radiolabeled Probe A

B2: Comp-1: double-stranded competitive EMSA probe, −653 to −615 of hNIS promoter, Seq ID No:75/76 (nucleic acid)
chain 1: GCCCTTTTTGAGCCTCAATTTCCCCACCTGTCAACAGCA
chain 2: TGCTGTTGACAGGTGGGGAAATTGAGGCTCAAAAAGGGC
modifications: chemistry not given here
[4]
  Competition against radiolabeled Probe A in EMSA (gel-shift signal): completely erased the characteristic gel-shift signal

B3: Comp-2: double-stranded competitive EMSA probe, −633 to −595 of hNIS promoter, Seq ID No:85/86 (nucleic acid)
chain 1: TCCCCACCTGTCAACAGCAGACAGTGACAGCTGTGATCA
chain 2: TGATCACAGCTGTCACTGTCTGCTGTTGACAGGTGGGGA
modifications: chemistry not given here
[4]
  Competition against radiolabeled Probe A in EMSA (gel-shift signal): fail to compete against the radiolabeled Probe A

Reference: US8252912B2, “Transcriptional repression of sodium-iodide symporter in thyroid carcinoma” (University of Kentucky Research Foundation, priority 2007, dated 2012)
